Source: patent publication US9181244B1, “Substituted pyrido[2,3-c]pyridazin-4(1H)-ones as tumor necrosis factor alpha and phosphodiesterase 4 inhibitors” (Xuanzhu Pharma Co., Ltd., priority 2014, dated 2015)

Columns and labels:
PDE-4D3 = PDE-4D3 (Homo sapiens, UniProt Q08499); assay: Lance cAMP assay, PDE-4D3 inhibition; type: biochemical; settings: PDE4D3 0.024 nM, 20 nM cAMP, 90 min room temperature
Experimental: (§1) Experimental Methods: Lance cAMP Assay:
(§2) Test samples were precisely weighed, added to and dissolved in DMSO, mixed sufficiently so as to reach 100 μM. The above mother solution was then diluted with DMSO to reach 1 μM, and then diluted 4 times to reach 0.0038 nM.
(§3) To 384 well plate were added 2.5 μl of substrate 20 nM cAMP and 50 nl of compound DMSO solution, then added 2.5 μl of PDE enzyme (PDE4B1 0.18 nM, PDE4D3 0.024 nM) buffer solution (1×HBSS, 5 mM Hepes pH 7.4, 3 mM MgCl2, 0.1% BSA). After incubation at room temperature for 90 min, 5 μl of Alexa Fluor® 647-anti cAMP antibody was added and incubated for 30 min, 10 μl of detection reagent was added and incubated for 60 min, then its LANCE signal was detected under 665 nm, inhibition rate was calculated by the following formulation, and IC50 values were calculated from inhibition rate using XLfit. Inhibition rate=[signal value (MAX)−signl value (sample)]×100/[signal value (MAX)−signal value (MIN)]
(§4) Notation: MAX: blank control without enzyme; MIN: blank control without compound.

TNF-α = assay: Inhibition activity of TNF-α in whole blood test (LPS-stimulated, ELISA); type: cell-based; settings: human whole blood diluted 1:1 with DPBS, lipopolysaccharide 100 ng/ml, overnight
Experimental: Experiment 2: Measurement of Inhibition Activity of TNF-α in Whole Blood Test
Fresh blood was collected from health human body using heparin sodium tubes. In Grade II Bio-safety Cabinet, whole blood was diluted in the ratio of 1:1 with DPBS (Dulbecco's Phosphate Buffered Saline). 100 μl of the diluted blood samples were taken and added to each of wells of a 96-well plate. 0.5 μl of compound solution was added to each well. The compound was formulated with dimethyl sulfoxide. The 96-well plate was placed in CO2 incubator and incubated for 30 min, then lipopolysaccharide in final concentration of 100 ng/ml was added, and incubated overnight. The 96-well plate was shaked for homogenization, and from each well 10 μl of solution was taken and transferred to another 96-well plate for ELISA to measure TNF-α content. The following formula was used to calculate inhibition rate, and the inhibition rate was used for calculation of IC50 value with XLfit. Inhibition rate=[signal value (MAX)−signal value (sample)]×100/[signal value (MAX)−signal value (MIN)]
Notation: MAX represents blank control stimulated with only lipopolysaccharide; MIN represents positive control with 1 μmol/l of dexamethasone.

PDE-4B1 = PDE-4B1 (Homo sapiens, UniProt Q07343); assay: Lance cAMP assay, PDE-4B1 inhibition; type: biochemical; settings: PDE4B1 0.18 nM, 20 nM cAMP, 90 min room temperature
PDE-4B1, sequence (Q07343 whole entry, species assumed): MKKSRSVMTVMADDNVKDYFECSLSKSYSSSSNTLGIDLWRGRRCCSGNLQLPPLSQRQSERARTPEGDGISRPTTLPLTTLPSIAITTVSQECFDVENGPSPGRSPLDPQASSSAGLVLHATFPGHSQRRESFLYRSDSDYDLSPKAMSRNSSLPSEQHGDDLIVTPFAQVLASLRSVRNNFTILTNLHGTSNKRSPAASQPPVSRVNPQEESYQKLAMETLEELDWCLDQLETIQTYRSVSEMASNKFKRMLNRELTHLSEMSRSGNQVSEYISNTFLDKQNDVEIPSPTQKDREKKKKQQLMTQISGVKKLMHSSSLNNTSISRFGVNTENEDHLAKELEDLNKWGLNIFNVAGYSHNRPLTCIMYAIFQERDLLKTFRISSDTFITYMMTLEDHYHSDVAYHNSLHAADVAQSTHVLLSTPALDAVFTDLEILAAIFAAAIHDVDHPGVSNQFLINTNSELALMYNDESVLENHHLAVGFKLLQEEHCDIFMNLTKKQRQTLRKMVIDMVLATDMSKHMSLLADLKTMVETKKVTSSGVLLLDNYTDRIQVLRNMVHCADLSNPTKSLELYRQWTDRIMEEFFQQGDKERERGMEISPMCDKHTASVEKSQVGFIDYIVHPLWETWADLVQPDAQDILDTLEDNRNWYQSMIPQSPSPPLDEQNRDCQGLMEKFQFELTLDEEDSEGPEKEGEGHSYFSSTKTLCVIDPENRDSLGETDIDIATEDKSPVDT
Experimental: as §1, §2, §3, §4

PDE4D, PDE4B = settings: some studies have shown; cited from earlier work

PDE-4D3, sequence (Q08499 1-673 isoform Q08499-2): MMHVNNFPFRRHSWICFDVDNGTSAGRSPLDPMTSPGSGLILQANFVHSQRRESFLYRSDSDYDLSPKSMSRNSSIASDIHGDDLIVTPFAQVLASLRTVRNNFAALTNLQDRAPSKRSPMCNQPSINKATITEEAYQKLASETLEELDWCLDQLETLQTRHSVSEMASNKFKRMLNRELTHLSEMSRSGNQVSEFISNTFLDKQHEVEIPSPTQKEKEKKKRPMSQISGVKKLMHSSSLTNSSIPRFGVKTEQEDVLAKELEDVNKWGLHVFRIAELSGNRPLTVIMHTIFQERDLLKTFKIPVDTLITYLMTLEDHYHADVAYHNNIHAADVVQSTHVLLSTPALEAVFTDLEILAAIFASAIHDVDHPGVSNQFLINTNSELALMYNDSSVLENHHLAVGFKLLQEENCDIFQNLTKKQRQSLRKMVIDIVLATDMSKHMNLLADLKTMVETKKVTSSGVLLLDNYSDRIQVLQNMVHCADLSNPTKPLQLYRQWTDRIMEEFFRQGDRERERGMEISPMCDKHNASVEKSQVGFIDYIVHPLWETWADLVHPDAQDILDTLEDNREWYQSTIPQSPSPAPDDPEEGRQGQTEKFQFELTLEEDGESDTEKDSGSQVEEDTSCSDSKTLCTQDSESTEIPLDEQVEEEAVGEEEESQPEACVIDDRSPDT

## O=C(NC1CC1)c1nn(-c2cccc(C#Cc3ccc[n+]([O-])c3)c2)c2ncccc2c1=O [Nitrogen oxide of Compound 1, 3-[[3-[3-(cyclopropylcarbamoyl)-4-oxo-pyridino[2,3-c]pyridazine-1(4H)-yl]phenyl]ethynyl]pyridine-1-oxide]
PDE-4D3
  IC50: 0.0189 µM
TNF-α
  IC50: 0.109 µM
PDE-4B1
  IC50: 0.0281 µM

## O=C(NC1CC1)c1nn(-c2cccc(Sc3cccnc3)c2)c2ncccc2c1=O [Compound 2, N-cyclopropyl-4-oxo-1-[3-(pyridin-3-ylthio)phenyl]-1,4-dihydropyridino[2,3-c]pyridazine-3-carboxamide]
PDE-4D3
  IC50: 0.25 µM
PDE-4B1
  IC50: 0.161 µM

## Roflumilast
PDE4D, PDE4B
  activity to PDE4D compared with activity to PDE4B: equivalent activity

## Cilomilast
PDE4D, PDE4B
  activity to PDE4D compared with activity to PDE4B: 10 time

## O=C(NC1CC1)c1nn(-c2cccc(Oc3ccc[n+]([O-])c3)c2)c2ncccc2c1=O [Nitrogen oxide of Compound 3]
PDE-4D3
  IC50: 0.643 µM
PDE-4B1
  IC50: 0.526 µM

## O=C(NC1CC1)c1cn(-c2cccc(C#Cc3ccc[n+]([O-])c3)c2)c2ncccc2c1=O [MK-0873, reference compound]
PDE-4D3
  IC50: 0.00458 µM
TNF-α
  IC50: 0.0403 µM
PDE-4B1
  IC50: 0.00559 µM

## O=C(NC1CC1)c1nn(-c2cccc(Oc3cccnc3)c2)c2ncccc2c1=O [Compound 3, N-cyclopropyl-4-oxo-1-(3-(pyridin-3-yloxy)phenyl)-1,4-dihydropyridino[2,3-c]pyridazine-3-carboxamide]
PDE-4D3
  IC50: 0.358 µM
PDE-4B1
  IC50: 0.305 µM

## C[C@@H]1C[C@H]2[C@@H]3CCC4=CC(=O)C=C[C@]4(C)[C@@]3(F)[C@@H](O)C[C@]2(C)[C@@]1(O)C(=O)CO [Dexamethasone, reference compound]
TNF-α
  IC50: 0.0033 µM

## O=C(NC1CC1)c1nn(-c2cccc(C#Cc3cccnc3)c2)c2ncccc2c1=O [Compound 1, N-cyclopropyl-4-oxo-1-[3-(pyridin-3-ylethynyl)phenyl]-1,4-dihydropyridino[2,3-c]pyridazine-3-formamide]
PDE-4D3
  IC50: 0.00219 µM
TNF-α
  IC50: 0.051 µM
PDE-4B1
  IC50: 0.00268 µM
